Results published in patent US20250073241A1, “Combination Therapies Using PRMT5 Inhibitors for the Treatment of Cancer” (MIRATI THERAPEUTICS, INC., priority 2021, published 2025).

Key:
Type in all cases: in vivo, mice
[1] = tested on: MKN45 xenograft tumors; experiment: MKN45 gastric tumor xenograft, Example 9; details: Palbociclib 130 mg/kg PO QD
Protocol: Immunodeficient female nu/nu mice were implanted with 5×10^6 LU99 lung cancer cells in 50% Matrigel. Tumors were measured using calipers until they reached approximately 150-200 mm^3. Animals were randomized to receive A) vehicle (0.5% methylcellulose (4000 cps)/0.2% Tween80 in water), B) a PRMT5 inhibitor, C) CDK4/6 inhibitor, or D) the PRMT5 inhibitor and CDK4/6 inhibitor, all administered orally (PO) for 21 days. Tumor volume was measured twice a week (n=5/treatment group). Average tumor volume and standard error of the mean was calculated and plotted at each study day in GraphPad.

[2] = tested on: PANC-05-04 xenograft tumors; experiment: PANC-05-04 pancreatic tumor xenograft, Example 7; details: Palbociclib 130 mg/kg PO QD
Protocol: (§1) The compound of the disclosure was evaluated in a couple of different pancreatic tumor xenograft models: PANC-05-04 and BXPC-3.

[3] = tested on: A549 PRMT-034 xenograft tumors; experiment: A549 PRMT-034 lung tumor xenograft, Example 6; details: Palbociclib 130 mg/kg PO QD
Protocol: (§2) The compound of the disclosure was evaluated in several different lung tumor xenograft models: HCC4006, SW1573 PRMT5-044, H1650, and A549 PRMT-034. […] 2021, incorporated by reference in its entirety.

[4] = tested on: HCC4006 xenograft tumors; experiment: HCC4006 lung tumor xenograft, Example 3; details: Palbociclib 130 mg/kg PO QD
Protocol: as §2

[5] = tested on: H1650 xenograft tumors; experiment: H1650 lung tumor xenograft, Example 5; details: Palbociclib 130 mg/kg PO QD
Protocol: as §2

[6] = tested on: BXPC-3 xenograft tumors; experiment: BXPC-3 pancreatic tumor xenograft, Example 8; details: Palbociclib 130 mg/kg PO QD
Protocol: as §1

[7] = tested on: KRAS^G12C and CDKN2A/MTAP^DEL lung tumor xenograft LU99 model; experiment: LU99 lung tumor xenograft, Example 2 (MRTX7477 / palbociclib); details: palbociclib 130 mg/kg PO QD
Description: (§3) 2021, incorporated by reference in its entirety.

[8] = tested on: KRAS^G12C and CDKN2A/MTAP^DEL lung tumor xenograft LU99 model; experiment: LU99 lung tumor xenograft, Example 1 (MRTX9768 / palbociclib); details: palbociclib 130 mg/kg PO QD
Protocol: as §3
The CDK4/6 inhibitor used in this example was palbociclib administered at 130mg/kg once a day (QD). Palbociclib is 6-acetyl-8-cyclopentyl-5-methyl-2-[(5-piperazin-1-ylpyridin-2-yl)amino]pyrido[2,3-d]pyrimidin-7-one, and is sold as Ibrance® available from Pfizer Inc., New York, New York.

[9] = Day 0, MRTX1719 100 mg/kg PO QD
[10] = Day 3, MRTX1719 100 mg/kg PO QD
[11] = Day 7, MRTX1719 100 mg/kg PO QD
[12] = Day 10, MRTX1719 100 mg/kg PO QD
[13] = Day 14, MRTX1719 100 mg/kg PO QD
[14] = Day 17, MRTX1719 100 mg/kg PO QD
[15] = Day 20, MRTX1719 100 mg/kg PO QD
[16] = Day 1, MRTX1719 100 mg/kg PO QD
[17] = Day 8, MRTX1719 100 mg/kg PO QD
[18] = Day 12, MRTX1719 100 mg/kg PO QD
[19] = Day 15, MRTX1719 100 mg/kg PO QD
[20] = Day 19, MRTX1719 100 mg/kg PO QD
[21] = Day 22, MRTX1719 100 mg/kg PO QD
[22] = Day 26, MRTX1719 100 mg/kg PO QD
[23] = Day 29, MRTX1719 100 mg/kg PO QD
[24] = Day 34, MRTX1719 100 mg/kg PO QD
[25] = Day 2, MRTX1719 100 mg/kg PO QD
[26] = Day 5, MRTX1719 100 mg/kg PO QD
[27] = Day 9, MRTX1719 100 mg/kg PO QD
[28] = Day 16, MRTX1719 100 mg/kg PO QD
[29] = Day 13, MRTX1719 50 mg/kg PO QD
[30] = Day 16, MRTX1719 50 mg/kg PO QD
[31] = Day 20, MRTX1719 50 mg/kg PO QD

`Cn1ncc(-c2ccc3c(=O)[nH]nc(CN)c3c2)c1-c1c(F)c(Cl)cc(OC2CC2)c1C#N` [MRTX1719, (2M)-2-(4-(4-(aminomethyl)-1-oxo-1,2-dihydrophthalazin-6-yl)-1-methyl-1H-pyrazol-5-y1)-4-chloro-6-cyclopropoxy-3-fluorobenzonitrile] was tested, and the “Tumor Volume, Mean” value [1, 9] was 105 mm^3, the “Tumor Volume, Mean” value [1, 10] was 165 mm^3 and the “Tumor Volume, Mean” value [1, 11] was 207 mm^3. The “Tumor Volume, Mean” value [1, 12] was 221 mm^3, the “Tumor Volume, Mean” value [1, 13] was 214 mm^3 and the “Tumor Volume, Mean” value [1, 14] was 230 mm^3. The “Tumor Volume, Mean” value [1, 15] was 221 mm^3, the “Tumor Volume, Mean” value [2, 9] was 149 mm^3 and the “Tumor Volume, Mean” value [2, 10] was 382 mm^3. The “Tumor Volume, Mean” value [2, 11] was 519 mm^3, the “Tumor Volume, Mean” value [2, 12] was 559 mm^3 and the “Tumor Volume, Mean” value [2, 13] was 563 mm^3. For the same molecule, the “Tumor Volume, Mean” value [2, 14] was 624 mm^3, the “Tumor Volume, Mean” value [2, 15] was 603 mm^3 and the “Tumor Volume, Mean” value [3, 16] was 118 mm^3. The “Tumor Volume, Mean” value [3, 17] was 169 mm^3, the “Tumor Volume, Mean” value [3, 18] was 200 mm^3 and the “Tumor Volume, Mean” value [3, 19] was 210 mm^3. For the same molecule, the “Tumor Volume, Mean” value [3, 20] was 214 mm^3, the “Tumor Volume, Mean” value [3, 21] was 221 mm^3 and the “Tumor Volume, Mean” value [3, 22] was 263 mm^3. The “Tumor Volume, Mean” value [3, 23] was 288 mm^3, the “Tumor Volume, Mean” value [3, 24] was 325 mm^3 and the “Tumor Volume, Mean” value [4, 9] was 126 mm^3. For the same molecule, the “Tumor Volume, Mean” value [4, 25] was 150 mm^3, the “Tumor Volume, Mean” value [4, 26] was 159 mm^3 and the “Tumor Volume, Mean” value [4, 27] was 154 mm^3. The “Tumor Volume, Mean” value [4, 18] was 156 mm^3, the “Tumor Volume, Mean” value [4, 28] was 159 mm^3 and the “Tumor Volume, Mean” value [4, 15] was 78 mm^3. The “Tumor Volume, Mean” value [5, 9] was 146 mm^3, the “Tumor Volume, Mean” value [5, 10] was 231 mm^3 and the “Tumor Volume, Mean” value [5, 11] was 471 mm^3. For the same molecule, the “Tumor Volume, Mean” value [5, 12] was 599 mm^3, the “Tumor Volume, Mean” value [5, 13] was 625 mm^3 and the “Tumor Volume, Mean” value [5, 14] was 711 mm^3. The “Tumor Volume, Mean” value [5, 15] was 635 mm^3, the “Tumor Volume, Mean” value ([6]; Day 0, MRTX1719 50 mg/kg PO QD) was 122 mm^3 and the “Tumor Volume, Mean” value ([6]; Day 3, MRTX1719 50 mg/kg PO QD) was 174 mm^3. For the same molecule, the “Tumor Volume, Mean” value ([6]; Day 6, MRTX1719 50 mg/kg PO QD) was 206 mm^3, the “Tumor Volume, Mean” value ([6]; Day 9, MRTX1719 50 mg/kg PO QD) was 310 mm^3 and the “Tumor Volume, Mean” value [6, 29] was 359 mm^3. The “Tumor Volume, Mean” value [6, 30] was 372 mm^3 and the “Tumor Volume, Mean” value [6, 31] was 368 mm^3.

In the case of `CC(=O)c1c(C)c2cnc(Nc3ccc(N4CCNCC4)cn3)nc2n(C2CCCC2)c1=O` [palbociclib, 6-acetyl-8-cyclopentyl-5-methyl-2-[(5-piperazin-1-ylpyridin-2-yl)amino]pyrido[2,3-d]pyrimidin-7-one], the “Tumor Volume, Mean” value [1, 9] is reported as 106 mm^3, the “Tumor Volume, Mean” value [1, 10] is reported as 158 mm^3 and the “Tumor Volume, Mean” value [1, 11] is reported as 236 mm^3. For the same molecule, the “Tumor Volume, Mean” value [1, 12] was 264 mm^3, the “Tumor Volume, Mean” value [1, 13] was 330 mm^3 and the “Tumor Volume, Mean” value [1, 14] was 434 mm^3. For the same molecule, the “Tumor Volume, Mean” value [1, 15] was 474 mm^3, the “Tumor Volume, Mean” value [2, 9] was 149 mm^3 and the “Tumor Volume, Mean” value [2, 10] was 319 mm^3. The “Tumor Volume, Mean” value [2, 11] was 365 mm^3, the “Tumor Volume, Mean” value [2, 12] was 378 mm^3 and the “Tumor Volume, Mean” value [2, 13] was 341 mm^3. For the same molecule, the “Tumor Volume, Mean” value [2, 14] was 391 mm^3, the “Tumor Volume, Mean” value [2, 15] was 350 mm^3 and the “Tumor Volume, Mean” value [3, 16] was 118 mm^3. The “Tumor Volume, Mean” value [3, 26] was 134 mm^3, the “Tumor Volume, Mean” value [3, 17] was 155 mm^3 and the “Tumor Volume, Mean” value [3, 18] was 177 mm^3. For the same molecule, the “Tumor Volume, Mean” value [3, 19] was 189 mm^3, the “Tumor Volume, Mean” value [3, 20] was 179 mm^3 and the “Tumor Volume, Mean” value [3, 21] was 186 mm^3. For the same molecule, the “Tumor Volume, Mean” value [3, 22] was 220 mm^3, the “Tumor Volume, Mean” value [3, 23] was 255 mm^3 and the “Tumor Volume, Mean” value [3, 24] was 263 mm^3. For the same molecule, the “Tumor Volume, Mean” value [4, 9] was 127 mm^3, the “Tumor Volume, Mean” value [4, 25] was 155 mm^3 and the “Tumor Volume, Mean” value [4, 26] was 143 mm^3. For the same molecule, the “Tumor Volume, Mean” value [4, 27] was 117 mm^3, the “Tumor Volume, Mean” value [4, 18] was 115 mm^3 and the “Tumor Volume, Mean” value [4, 28] was 111 mm^3. For the same molecule, the “Tumor Volume, Mean” value [4, 15] was 100 mm^3, the “Tumor Volume” value ([7]; Day 1, MRTX7477 200 mg/kg PO BID) was 209.8 mm^3 and the “Tumor Volume” value ([7]; Day 5, MRTX7477 200 mg/kg PO BID) was 215.9 mm^3. The “Tumor Volume” value ([7]; Day 8, MRTX7477 200 mg/kg PO BID) was 277.3 mm^3, the “Tumor Volume” value ([7]; Day 12, MRTX7477 200 mg/kg PO BID) was 359.4 mm^3 and the “Tumor Volume” value ([7]; Day 15, MRTX7477 200 mg/kg PO BID) was 413.5 mm^3. For the same molecule, the “Tumor Volume” value ([7]; Day 19, MRTX7477 200 mg/kg PO BID) was 675.9 mm^3, the “Tumor Volume” value ([7]; Day 21, MRTX7477 200 mg/kg PO BID) was 827.0 mm^3 and the “Tumor Volume” value ([7]; Day −2, MRTX7477 200 mg/kg PO BID) was 133.4 mm^3. For the same molecule, the “Tumor Volume, Mean” value [5, 9] was 147 mm^3, the “Tumor Volume, Mean” value [5, 10] was 268 mm^3 and the “Tumor Volume, Mean” value [5, 11] was 356 mm^3. For the same molecule, the “Tumor Volume, Mean” value [5, 12] was 493 mm^3, the “Tumor Volume, Mean” value [5, 13] was 480 mm^3 and the “Tumor Volume, Mean” value [5, 14] was 589 mm^3. The “Tumor Volume, Mean” value [5, 15] was 743 mm^3, the “Tumor Volume, Mean” value ([8]; Day 0, MRTX9768 100 mg/kg PO BID) was 184.39 mm^3 and the “Tumor Volume, Mean” value ([8]; Day 3, MRTX9768 100 mg/kg PO BID) was 247.02 mm^3. The “Tumor Volume, Mean” value ([8]; Day 7, MRTX9768 100 mg/kg PO BID) was 355.77 mm^3, the “Tumor Volume, Mean” value ([8]; Day 10, MRTX9768 100 mg/kg PO BID) was 482.60 mm^3 and the “Tumor Volume, Mean” value ([8]; Day 14, MRTX9768 100 mg/kg PO BID) was 731.56 mm^3. The “Tumor Volume, Mean” value ([8]; Day 17, MRTX9768 100 mg/kg PO BID) was 914.41 mm^3, the “Tumor Volume, Mean” value ([8]; Day 21, MRTX9768 100 mg/kg PO BID) was 1148.44 mm^3 and the “Tumor Volume, Mean” value ([6]; Day 0, MRTX1719 50 mg/kg PO QD) was 122 mm^3. The “Tumor Volume, Mean” value ([6]; Day 3, MRTX1719 50 mg/kg PO QD) was 162 mm^3, the “Tumor Volume, Mean” value ([6]; Day 6, MRTX1719 50 mg/kg PO QD) was 174 mm^3 and the “Tumor Volume, Mean” value ([6]; Day 9, MRTX1719 50 mg/kg PO QD) was 187 mm^3. For the same molecule, the “Tumor Volume, Mean” value [6, 29] was 195 mm^3, the “Tumor Volume, Mean” value [6, 30] was 190 mm^3 and the “Tumor Volume, Mean” value [6, 31] was 193 mm^3.
